Results taken from ChEMBL document CHEMBL1201862, “PubChem BioAssay data set” (2004).
The source made the active and inactive calls.

Assays:
NADPH oxidase 1 = NADPH oxidase 1 (Homo sapiens, UniProt Q9Y5S8); experiment: Late-stage luminescence-based cell-based dose response assay to identify inhibitors of NADPH oxidase 1 (NOX1): Synthesized analogs 2.; type: functional
Protein skinhead-1 = molecular target: T1, Protein skinhead-1 (Caenorhabditis elegans, UniProt P34707); type: functional
T1 sequence (P34707 whole entry): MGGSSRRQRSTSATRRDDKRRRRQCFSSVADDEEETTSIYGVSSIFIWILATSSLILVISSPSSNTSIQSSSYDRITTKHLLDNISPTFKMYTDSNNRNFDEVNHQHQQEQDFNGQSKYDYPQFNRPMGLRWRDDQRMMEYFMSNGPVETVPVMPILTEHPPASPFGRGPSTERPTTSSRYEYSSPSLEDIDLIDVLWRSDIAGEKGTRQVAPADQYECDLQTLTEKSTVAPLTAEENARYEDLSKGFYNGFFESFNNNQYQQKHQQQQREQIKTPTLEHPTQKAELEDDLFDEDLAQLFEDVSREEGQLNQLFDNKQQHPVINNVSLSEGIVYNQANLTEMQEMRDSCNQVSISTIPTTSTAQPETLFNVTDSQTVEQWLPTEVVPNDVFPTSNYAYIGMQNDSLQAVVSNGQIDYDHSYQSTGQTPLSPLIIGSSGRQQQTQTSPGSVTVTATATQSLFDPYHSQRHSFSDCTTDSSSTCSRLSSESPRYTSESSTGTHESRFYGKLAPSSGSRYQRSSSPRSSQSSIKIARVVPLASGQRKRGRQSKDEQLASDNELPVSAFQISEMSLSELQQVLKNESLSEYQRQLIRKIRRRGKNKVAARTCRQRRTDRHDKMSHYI

[1] = molecular target: Heat shock protein HSP 90-alpha (Homo sapiens, UniProt P07900); experiment: Luminescence-based dose response biochemical high throughput screening assay for inhibitors of the Heat Shock Protein 90 (HSP90). [Related pubchem assays: 1831 (Summary AID.), 1846 (Confirmation screen.), 1789 (Primary screen.)]
[2] = molecular target: Glucose-6-phosphate 1-dehydrogenase (Homo sapiens, UniProt P11413); experiment: inhibition of Homo sapiens G6PD, dose series – biochemical, fluorescence, selectivity assay for P. falciparum G6PD inhibitor project, dose response (AID 504792); type: functional
[3] = Plasmodium falciparum Dd2 Sybr green parasite growth Measured in Cell-Based and Microorganism Combination System Using Plate Reader - 2153-01_Inhibitor_Dose_DryPowder_Activity_Set3.; type: functional
[4] = growth inhibition of PfATP4-mutant resistant parasites – NITD609-resistant line, SYBR Green, dry powder, dose response (AID 1159571); type: functional, cell-based;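 further: parasites synchronized at ring stage by sorbitol before testing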
[5] = toxicity to human HepG2 hepatoma cells – cell-based, plate reader, dry powder samples, cytotoxicity control, dose response (AID 1159569); type: functional;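 further: inhibitor potency with signal falling toward the positive control level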
[6] = Dd2 malaria parasite growth inhibition potency – SYBR Green, dry powder samples, dose response (AID 1159566); type: functional, cell-based;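 further: potency for growth inhibition with lower SYBR green DNA signal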
[7] = P. falciparum Dd2 growth inhibitors, dose response, SYBR Green, cherry-picked samples (AID 1159567); type: functional, cell-based
[8] = growth inhibition of yeast DHODH-expressing 3D7 parasites – SYBR Green, dry powder samples, dose response (AID 1159570); type: functional, cell-based;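 further: parasite growth measured after 72 hours of compound exposure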
[9] = molecular target: Aryl hydrocarbon receptor (Homo sapiens, UniProt P35869); experiment: Luminescence-based cell-based high throughput dose response assay for activators of the Aryl Hydrocarbon Receptor (AHR). [Related pubchem assays: 2796 (Primary screen (AHR activators in singlicate)), 2845 (Confirmation screen (AHR activators in triplicate)), 434939 (Counterscreen (PXR activators in triplicate)), 2804 (Summary (AHR activators))]; type: ADME
HEK293 [10] = experiment: cells; details: Homo sapiens
[11] = molecular target: Mitogen-activated protein kinase 10 (Homo sapiens, UniProt P53779); experiment: Dose response biochemical screening assay for inhibitors of c-Jun N-Terminal Kinase 3 (JNK3). [Related pubchem assays: 746 ]
HEK293 [12] = experiment: cells; details: Homo sapiens; remark: listed apart in the source
[13] = DRD fibroblast viability loss – cell-based, non-viral oncogenic, luminescence, dose response (AID 1934); type: functional; details: Homo sapiens
BJ [14] = experiment: BJ-TERT fibroblast viability loss – cell-based, RAS-independent, luminescence, dose response (AID 1933); type: functional; details: Homo sapiens
[15] = viability of HCT116 lacking mutant beta-catenin – cell-based, human colon tumor, dose response (AID 1045); type: functional;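 further: HCT116 colon tumor cells with beta catenin knocked out; cells exposed to compound for 60 hours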
INS1 = experiment: INS-1E survival protection against cytokine death – cell-based, luminescence, retest, dose response (AID 449756); type: functional; details: Rattus norvegicus;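 further: cell death triggered by IL-1 beta plus TNF-alpha plus IFN-gamma mixture; protective hits raise ATP signal compared with cytokine alone wells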
BJ [16] = experiment: cells; type: functional, cell-based; details: Homo sapiens
[17] = viability of PTEN-deleted HCT116 cells – cell-based, HCT116 PTEN knockout, dose response (AID 1047); type: functional;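 further: HCT116 colon tumor cells with PTEN knocked out; cells exposed to compound for 60 hours before readout; potency for loss of cell viability measured by luminescence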
BJ [18] = experiment: BJ-TERT-LT-ST fibroblast viability loss – cell-based, RAS-independent, luminescence, dose response (AID 1935); type: functional; details: Homo sapiens;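 further: BJ fibroblasts immortalized with TERT plus LT and ST oncogenes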
[19] = Luminescence Cell-Based Dose Confirmation HTS to Identify Inhibitors of Polyadenylation.; type: functional
[20] = antimalarial activity against Dd2 parasites – SYBR Green fluorescence, erythrocytes, dry powder, set 2, dose response (AID 1159574); type: functional, cell-based
[21] = rise of 4N DNA cells, HeLa – IC50, dose response (AID 1117351); type: functional, cell-based
[22] = non-specific 3'UTR reporter inhibition in Clone20-Shn3RL – cell-based, Renilla luciferase, cherry-picked, counter-screen for Shn3 inhibitor project, dose response (AID 624133); type: functional
[23] = reduction of Shn3 3'UTR-driven luciferase in osteoblasts – cell-based, Clone20 osteoblasts, firefly luciferase, cherry-picked, dose response (AID 624132); type: functional;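 further: firefly luciferase luminescence from reporter carrying the Shn3 3'UTR in osteoblasts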
[24] = glucagon-like peptide-1 release potency in STC-1, concentration-response, half-maximal inhibitory concentration in the STC-1 line (AID 1117345); type: functional, cell-based
Bcl-2-related protein A1 [25] = molecular target: T2, Bcl-2-related protein A1 (Mus musculus, UniProt Q07440); experiment: displacement of Bid BH3 peptide from Bfl-1 – biochemical, fluorescence polarization, FITC-Bid, mouse, primary screen (AID 432)
T2 sequence (Q07440 whole entry): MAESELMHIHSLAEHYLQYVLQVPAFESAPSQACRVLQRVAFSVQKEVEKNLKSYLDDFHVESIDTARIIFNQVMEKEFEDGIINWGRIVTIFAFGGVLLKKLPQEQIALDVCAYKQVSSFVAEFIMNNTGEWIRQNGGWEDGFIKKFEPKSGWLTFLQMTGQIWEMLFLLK

Bcl-2-related protein A1 [26] = molecular target: T2, Bcl-2-related protein A1; experiment: small-molecule antagonists of Bfl-1/BH3 interaction – biochemical, TR-FRET, mouse Bfl-1, confirmation (AID 621);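 further: TR-FRET binding of GST-Bfl-1 to FITC-labelled Bid peptide via terbium antibody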
[27] = rise of 2N DNA cells, HeLa – IC50, dose response (AID 1117349); type: functional, cell-based
[28] = Potency on glucagon-like peptide 1 release, dose-response in NCI-H716 cell line, half maximal inhibitory concentration (AID 1117344); type: functional, cell-based
ELAV-like protein 1 = ELAV-like protein 1 (Homo sapiens, UniProt Q15717); experiment: Identify HuR specific inhibitors.; type: functional
[29] = molecular target: Glutathione-S-transferase (Schistosoma japonicum, UniProt Q26513); experiment: GST-antibody interaction or FRET quenching – biochemical, TR-FRET, artefact control for Vif-APOBEC3G degradation inhibitor project, dose response (AID 1117362); type: functional
[30] = molecular target: T3, Carboxy-terminal domain RNA polymerase II polypeptide A small phosphatase 1 (Homo sapiens, UniProt Q9GZU7); experiment: CTDSP1 inhibitors, concentration-response, biochemical, absorbance readout, ultra-high-throughput screen actives (AID 540297); type: functional
T3 sequence (Q9GZU7 whole entry): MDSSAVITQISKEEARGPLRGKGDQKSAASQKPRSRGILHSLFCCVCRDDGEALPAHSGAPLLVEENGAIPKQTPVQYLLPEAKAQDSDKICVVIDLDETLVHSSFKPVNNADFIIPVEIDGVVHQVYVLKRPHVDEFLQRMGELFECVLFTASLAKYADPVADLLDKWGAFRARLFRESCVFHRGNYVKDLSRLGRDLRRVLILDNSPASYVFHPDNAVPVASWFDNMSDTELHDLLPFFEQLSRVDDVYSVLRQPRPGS

[31] = molecular target: T4, Small ubiquitin-related modifier 1 (Homo sapiens, UniProt P63165); experiment: SUMO1 protein-protein binding blockers, potency – biochemical, FRET, dose response (AID 624383); type: functional; details: read-out: IC50_Mean
[32] = molecular target: T4, Small ubiquitin-related modifier 1; experiment: SUMO1 protein interaction blockers, potency – biochemical, fluorescence polarization, uHTS hits, dose response (AID 624382); type: functional; details: read-out: IC50_Mean

T4 sequence (P63165 whole entry): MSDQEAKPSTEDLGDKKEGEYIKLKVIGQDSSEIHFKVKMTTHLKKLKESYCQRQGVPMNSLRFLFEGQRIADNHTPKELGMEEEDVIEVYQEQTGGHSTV
Glutathione-S-transferase, sequence (Q26513 whole entry, the tested form may be a part): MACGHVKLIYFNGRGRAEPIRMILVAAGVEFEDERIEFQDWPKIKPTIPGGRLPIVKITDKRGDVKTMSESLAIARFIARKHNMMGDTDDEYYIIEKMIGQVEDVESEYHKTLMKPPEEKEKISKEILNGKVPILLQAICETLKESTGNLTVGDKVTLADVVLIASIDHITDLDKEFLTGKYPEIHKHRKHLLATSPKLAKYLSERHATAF
NADPH oxidase 1, sequence (Q9Y5S8 whole entry): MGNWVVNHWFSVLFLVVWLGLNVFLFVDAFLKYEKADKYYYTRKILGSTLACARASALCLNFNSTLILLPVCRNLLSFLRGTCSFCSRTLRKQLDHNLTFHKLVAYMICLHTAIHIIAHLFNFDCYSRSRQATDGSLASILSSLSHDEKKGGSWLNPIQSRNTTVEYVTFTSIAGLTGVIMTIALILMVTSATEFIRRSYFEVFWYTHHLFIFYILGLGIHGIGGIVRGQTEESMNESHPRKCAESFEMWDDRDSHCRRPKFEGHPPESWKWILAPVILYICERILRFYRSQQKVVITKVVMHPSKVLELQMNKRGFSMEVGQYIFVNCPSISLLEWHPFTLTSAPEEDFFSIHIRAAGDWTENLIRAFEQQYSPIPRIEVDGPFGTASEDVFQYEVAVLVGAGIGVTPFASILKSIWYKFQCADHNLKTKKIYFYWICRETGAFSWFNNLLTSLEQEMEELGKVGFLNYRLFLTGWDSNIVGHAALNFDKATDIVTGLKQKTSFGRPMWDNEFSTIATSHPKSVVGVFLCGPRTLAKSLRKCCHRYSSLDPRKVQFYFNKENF
ELAV-like protein 1, sequence (Q15717 whole entry): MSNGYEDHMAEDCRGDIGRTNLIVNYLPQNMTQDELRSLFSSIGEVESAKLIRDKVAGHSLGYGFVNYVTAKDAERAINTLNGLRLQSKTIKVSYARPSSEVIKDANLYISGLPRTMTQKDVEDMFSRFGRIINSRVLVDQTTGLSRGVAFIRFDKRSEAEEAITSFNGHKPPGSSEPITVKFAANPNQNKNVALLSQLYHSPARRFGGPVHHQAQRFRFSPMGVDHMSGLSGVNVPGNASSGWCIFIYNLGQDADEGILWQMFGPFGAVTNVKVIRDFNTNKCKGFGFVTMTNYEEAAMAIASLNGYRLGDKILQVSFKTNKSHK
Mitogen-activated protein kinase 10, sequence (P53779 whole entry): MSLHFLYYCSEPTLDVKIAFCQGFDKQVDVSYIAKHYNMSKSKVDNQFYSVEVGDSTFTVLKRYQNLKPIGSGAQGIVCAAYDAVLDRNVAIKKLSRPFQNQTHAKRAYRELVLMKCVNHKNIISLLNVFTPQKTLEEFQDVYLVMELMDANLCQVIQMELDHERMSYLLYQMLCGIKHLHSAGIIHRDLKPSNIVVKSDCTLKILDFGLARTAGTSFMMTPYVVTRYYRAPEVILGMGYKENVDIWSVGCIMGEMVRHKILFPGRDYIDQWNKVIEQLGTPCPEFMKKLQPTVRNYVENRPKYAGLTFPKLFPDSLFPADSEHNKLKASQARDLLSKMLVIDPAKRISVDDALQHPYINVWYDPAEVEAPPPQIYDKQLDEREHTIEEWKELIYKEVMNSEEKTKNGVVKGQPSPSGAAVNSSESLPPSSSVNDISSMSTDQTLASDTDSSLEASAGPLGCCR
Glucose-6-phosphate 1-dehydrogenase, sequence (P11413 whole entry): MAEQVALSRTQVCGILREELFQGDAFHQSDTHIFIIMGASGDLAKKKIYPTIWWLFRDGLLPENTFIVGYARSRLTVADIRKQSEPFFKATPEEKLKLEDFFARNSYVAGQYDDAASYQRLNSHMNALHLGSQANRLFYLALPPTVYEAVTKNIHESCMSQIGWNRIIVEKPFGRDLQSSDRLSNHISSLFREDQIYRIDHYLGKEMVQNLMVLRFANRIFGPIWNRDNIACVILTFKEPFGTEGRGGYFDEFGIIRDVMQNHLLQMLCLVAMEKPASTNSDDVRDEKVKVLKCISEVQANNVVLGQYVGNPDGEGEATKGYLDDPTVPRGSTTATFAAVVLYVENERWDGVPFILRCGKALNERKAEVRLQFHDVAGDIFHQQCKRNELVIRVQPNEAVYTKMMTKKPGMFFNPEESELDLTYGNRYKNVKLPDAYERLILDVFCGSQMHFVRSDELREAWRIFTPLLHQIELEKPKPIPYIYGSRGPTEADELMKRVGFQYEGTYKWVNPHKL
Aryl hydrocarbon receptor, sequence (P35869 whole entry): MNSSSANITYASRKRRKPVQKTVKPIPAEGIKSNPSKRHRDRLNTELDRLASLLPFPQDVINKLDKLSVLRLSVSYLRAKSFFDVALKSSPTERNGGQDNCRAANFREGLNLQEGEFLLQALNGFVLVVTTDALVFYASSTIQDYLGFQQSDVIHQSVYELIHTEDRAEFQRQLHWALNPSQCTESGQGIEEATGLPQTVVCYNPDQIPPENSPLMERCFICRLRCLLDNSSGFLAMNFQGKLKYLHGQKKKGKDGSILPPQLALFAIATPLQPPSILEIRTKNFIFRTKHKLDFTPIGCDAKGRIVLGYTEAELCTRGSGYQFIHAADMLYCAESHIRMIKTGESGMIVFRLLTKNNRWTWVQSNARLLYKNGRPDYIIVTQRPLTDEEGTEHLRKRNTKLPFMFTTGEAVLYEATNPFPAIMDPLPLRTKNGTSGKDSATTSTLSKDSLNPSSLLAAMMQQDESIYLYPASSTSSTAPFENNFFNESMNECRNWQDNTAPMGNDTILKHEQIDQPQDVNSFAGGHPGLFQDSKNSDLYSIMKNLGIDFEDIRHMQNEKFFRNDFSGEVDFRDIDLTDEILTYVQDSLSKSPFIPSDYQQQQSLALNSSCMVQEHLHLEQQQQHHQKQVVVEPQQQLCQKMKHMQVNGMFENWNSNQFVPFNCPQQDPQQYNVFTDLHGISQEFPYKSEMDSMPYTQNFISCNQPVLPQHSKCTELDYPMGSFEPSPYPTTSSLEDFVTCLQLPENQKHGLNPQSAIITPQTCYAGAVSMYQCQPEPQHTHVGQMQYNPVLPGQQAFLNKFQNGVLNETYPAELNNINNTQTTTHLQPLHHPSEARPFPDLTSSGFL

With `CN1c2ccccc2Sc2cc(N=[N+]=[N-])ccc21` the IC50 (NADPH oxidase 1) was 0.73 µM (active).
For `[O-]/[N+](=C\c1ccco1)c1ccc(Cl)cc1`, the IC50 (Protein skinhead-1) was > 100 µM (inactive), the IC50 [1] was 4.31 µM (active) and the IC50 [2] was 27.6 µM (inactive).
With `CCCC(=O)Nc1ccc2c(c1)OC[C@@H](C)N(Cc1cccc(F)c1)C[C@@H](C)[C@H](OC)CN(C)C2=O` the AC50 [3] was 1.82 µM (active), the AC50 [4] was 2.24 µM (active) and the AC50 [5] was 58.9 µM (active). For the same molecule, the AC50 [6] was 0.884 µM (active), the AC50 [7] was 1.09 µM (active) and the AC50 [8] was 5.76 µM (active).
In the case of `CCCCc1cc2c(c(NC(C)=O)n1)c(=O)oc1ccccc12`, the EC50 [9] is reported as 3.25 µM (active).
In the case of `COc1cc(C2NC(=O)NC(C)=C2C(=O)OCc2ccccc2)ccc1O` (stereo unspecified), the EC50 (HEK293 [10]) is reported as > 59.6 µM (inactive), the IC50 [11] is reported as > 93.1 µM (not active) and the EC50 (HEK293 [12]) is reported as > 59.6 µM (inactive).
For `N#C/C(=C\c1ccc([N+](=O)[O-])o1)c1nc2ccccc2[nH]1`, the EC50 [13] was 5.9 µM (inconclusive), the EC50 (BJ [14]) was 2.27 µM (inconclusive) and the EC50 [15] was 1.01 µM (active). For the same molecule, the AC50 (INS1) was 3.02 µM (active), the EC50 (BJ [16]) was > 150 µM (inconclusive) and the EC50 [17] was 0.985 µM (active). The EC50 (BJ [18]) was > 150 µM (inconclusive) and the EC50 [19] was 3.64 µM (active).
For `COc1ccc(NC(=O)N2CCCCN3[C@@H](CO)[C@H](c4ccc(C#Cc5ccccc5)cc4)[C@@H]3C2)cc1`, the AC50 [20] was 0.036 µM (active).
With `CC[C@H](C)C(=O)O[C@H]1C[C@@H](C)C=C2C=C[C@H](C)[C@H](CC[C@@H]3C[C@@H](O)CC(=O)O3)[C@H]21` [LOVASTATIN] the IC50 [21] was > 10 µM (inactive), the AC50 [22] was 4.74 µM (active) and the AC50 [23] was 1.62 µM (active). For the same molecule, the IC50 [24] was > 40 µM (inactive), the IC50 (Bcl-2-related protein A1 [25]) was > 100 µM (not active) and the IC50 (Bcl-2-related protein A1 [26]) was > 100 µM (not active). For the same molecule, the IC50 [27] was > 10 µM (inactive) and the IC50 [28] was 32.9 µM (inactive).
For `CCOC(=O)C(=O)Cc1cccnn1`, the IC50 (ELAV-like protein 1) was 4.6 µM (inactive), the IC50 [29] was > 100 µM (active) and the IC50 [30] was 4.08 µM (active). The IC50 [31] was 6.34 µM (active) and the IC50 [32] was > 66.6 µM (inactive).
